{"source": "paper PMC10778198", "about": "“First-in-Human Dose-Escalation Study of the Novel Oral Depsipeptide Class I-Targeting HDAC Inhibitor Bocodepsin (OKI-179) in Patients with Advanced Solid Tumors” (Cancers, 2023)", "test_system": "patients with advanced solid tumors", "test": "phase I dose escalation: safety, DLT, MTD, RP2D (CTCAE v. 5)", "assay_type": "in vivo", "details": "5:2, 300 mg (N=6)", "from_the_text": "Subsequent dosing cohorts were enrolled using a standard 3 + 3 design.\nIf any patient in any cohort of three patients developed a DLT during cycle 1, an additional three patients were recruited to expand the cohort to up to six evaluable patients. If two or more patients in any expanded cohort developed a DLT, this dose was considered non-tolerated, and dose escalation was discontinued. The MTD was defined as the highest dose level for which no more than one of six patients experienced a DLT.\nPatients were continuously evaluated for adverse events throughout the study using the Common Terminology Criteria of Adverse Events (CTCAE v. 5). The patients underwent a clinical history and physical examination, an ECOG PS, a complete blood count (CBCs), chemistry, coagulation studies, urinalysis, a serum pregnancy test (as applicable), a triplicate ECG, an ophthalmology examination, and baseline tumor assessment at screening. During cycle 1, weekly history and physical examination, CBC, chemistry, coagulation parameters, urinalysis, and triplicate ECGs were performed; in subsequent cycles, weekly labs were limited to a CBC. Repeat ophthalmology examinations were performed at cycle 3, day 1, and at the end of treatment. Repeat tumor assessment was performed every 2 cycles (6 weeks) in accordance with RECIST 1.1.", "data": [{"molecule": "CC(C)[C@H](N)C(=O)SCC/C=C/[C@@H]1CC(=O)NCc2nc(cs2)C(=O)NC(C)(C)C(=O)N[C@@H](C(C)C)C(=O)O1", "note": "[OKI-179, Bocodepsin]", "values": [{"measurement": "TEAE: Aspartate aminotransferase increased", "setting": "All grades", "value": "1 (17) N (%)"}, {"measurement": "TEAE: Back pain", "setting": "All grades", "value": "2 (33) N (%)"}, {"measurement": "TEAE: Bile duct stenosis", "setting": "All grades", "value": "1 (17) N (%)"}, {"measurement": "TEAE: Blood alkaline phosphatase increased", "setting": "All grades", "value": "1 (17) N (%)"}, {"measurement": "TEAE: Decreased appetite", "setting": "All grades", "value": "2 (33) N (%)"}, {"measurement": "TEAE: Dehydration", "setting": "All grades", "value": "1 (17) N (%)"}, {"measurement": "TEAE: Dysphagia", "setting": "All grades", "value": "1 (17) N (%)"}, {"measurement": "TEAE: ECG QT prolonged", "setting": "All grades", "value": "2 (33) N (%)"}, {"measurement": "TEAE: Enterococcal bacteremia", "setting": "All grades", "value": "1 (17) N (%)"}, {"measurement": "TEAE: Esophagitis", "setting": "All grades", "value": "1 (17) N (%)"}, {"measurement": "TEAE: Esophagoscopy", "setting": "All grades", "value": "1 (17) N (%)"}, {"measurement": "TEAE: Eye pain", "setting": "All grades", "value": "1 (17) N (%)"}, {"measurement": "TEAE: Fatigue", "setting": "All grades", "value": "4 (67) N (%)"}, {"measurement": "TEAE: Gastritis", "setting": "All grades", "value": "1 (17) N (%)"}, {"measurement": "TEAE: Hypomagnesaemia", "setting": "All grades", "value": "1 (17) N (%)"}, {"measurement": "TEAE: Myalgia", "setting": "All grades", "value": "1 (17) N (%)"}, {"measurement": "TEAE: Nausea", "setting": "All grades", "value": "5 (83) N (%)"}, {"measurement": "TEAE: Neutrophil count decreased", "setting": "All grades", "value": "1 (17) N (%)"}, {"measurement": "TEAE: Oropharyngeal pain", "setting": "All grades", "value": "1 (17) N (%)"}, {"measurement": "TEAE: Pain in extremity", "setting": "All grades", "value": "1 (17) N (%)"}, {"measurement": "TEAE: Paresthesia", "setting": "All grades", "value": "1 (17) N (%)"}, {"measurement": "TEAE: Platelet count decreased", "setting": "All grades", "value": "4 (67) N (%)"}, {"measurement": "TEAE: Pneumonitis", "setting": "All grades", "value": "1 (17) N (%)"}, {"measurement": "TEAE: Pneumothorax", "setting": "All grades", "value": "1 (17) N (%)"}, {"measurement": "TEAE: Vomiting", "setting": "All grades", "value": "3 (50) N (%)"}, {"measurement": "TEAE: Abdominal pain", "setting": "G1", "value": "0 N (%)"}, {"measurement": "TEAE: Anemia", "setting": "G1", "value": "1 (17) N (%)"}, {"measurement": "TEAE: Aspartate aminotransferase increased", "setting": "G1", "value": "1 (17) N (%)"}, {"measurement": "TEAE: Back pain", "setting": "G1", "value": "1 (17) N (%)"}, {"measurement": "TEAE: Bile duct stenosis", "setting": "G1", "value": "0 N (%)"}, {"measurement": "TEAE: Blood alkaline phosphatase increased", "setting": "G1", "value": "1 (17) N (%)"}, {"measurement": "TEAE: Decreased appetite", "setting": "G1", "value": "0 N (%)"}, {"measurement": "TEAE: Dehydration", "setting": "G1", "value": "1 (17) N (%)"}, {"measurement": "TEAE: Dysphagia", "setting": "G1", "value": "0 N (%)"}, {"measurement": "TEAE: ECG QT prolonged", "setting": "G1", "value": "2 (33) N (%)"}, {"measurement": "TEAE: Enterococcal bacteremia", "setting": "G1", "value": "0 N (%)"}, {"measurement": "TEAE: Esophagitis", "setting": "G1", "value": "1 (17) N (%)"}, {"measurement": "TEAE: Esophagoscopy", "setting": "G1", "value": "0 N (%)"}, {"measurement": "TEAE: Eye pain", "setting": "G1", "value": "1 (17) N (%)"}, {"measurement": "TEAE: Fatigue", "setting": "G1", "value": "1 (17) N (%)"}, {"measurement": "TEAE: Gastritis", "setting": "G1", "value": "1 (17) N (%)"}, {"measurement": "TEAE: Hypomagnesaemia", "setting": "G1", "value": "1 (17) N (%)"}, {"measurement": "TEAE: Myalgia", "setting": "G1", "value": "1 (17) N (%)"}, {"measurement": "TEAE: Nausea", "setting": "G1", "value": "4 (67) N (%)"}, {"measurement": "TEAE: Neutrophil count decreased", "setting": "G1", "value": "1 (17) N (%)"}, {"measurement": "TEAE: Oropharyngeal pain", "setting": "G1", "value": "0 N (%)"}, {"measurement": "TEAE: Pain in extremity", "setting": "G1", "value": "0 N (%)"}, {"measurement": "TEAE: Paresthesia", "setting": "G1", "value": "1 (17) N (%)"}, {"measurement": "TEAE: Platelet count decreased", "setting": "G1", "value": "4 (67) N (%)"}, {"measurement": "TEAE: Pneumonitis", "setting": "G1", "value": "0 N (%)"}, {"measurement": "TEAE: Pneumothorax", "setting": "G1", "value": "0 N (%)"}, {"measurement": "TEAE: Vomiting", "setting": "G1", "value": "2 (33) N (%)"}, {"measurement": "TEAE: Abdominal pain", "setting": "G2", "value": "1 (17) N (%)"}, {"measurement": "TEAE: Anemia", "setting": "G2", "value": "0 N (%)"}, {"measurement": "TEAE: Aspartate aminotransferase increased", "setting": "G2", "value": "0 N (%)"}, {"measurement": "TEAE: Back pain", "setting": "G2", "value": "0 N (%)"}, {"measurement": "TEAE: Bile duct stenosis", "setting": "G2", "value": "0 N (%)"}, {"measurement": "TEAE: Blood alkaline phosphatase increased", "setting": "G2", "value": "0 N (%)"}, {"measurement": "TEAE: Decreased appetite", "setting": "G2", "value": "1 (17) N (%)"}, {"measurement": "TEAE: Dehydration", "setting": "G2", "value": "0 N (%)"}, {"measurement": "TEAE: Dysphagia", "setting": "G2", "value": "1 (17) N (%)"}, {"measurement": "TEAE: ECG QT prolonged", "setting": "G2", "value": "0 N (%)"}, {"measurement": "TEAE: Enterococcal bacteremia", "setting": "G2", "value": "0 N (%)"}, {"measurement": "TEAE: Esophagitis", "setting": "G2", "value": "0 N (%)"}, {"measurement": "TEAE: Esophagoscopy", "setting": "G2", "value": "1 (17) N (%)"}, {"measurement": "TEAE: Eye pain", "setting": "G2", "value": "0 N (%)"}, {"measurement": "TEAE: Fatigue", "setting": "G2", "value": "3 (50) N (%)"}, {"measurement": "TEAE: Gastritis", "setting": "G2", "value": "0 N (%)"}, {"measurement": "TEAE: Hypomagnesaemia", "setting": "G2", "value": "0 N (%)"}, {"measurement": "TEAE: Myalgia", "setting": "G2", "value": "0 N (%)"}, {"measurement": "TEAE: Nausea", "setting": "G2", "value": "0 N (%)"}, {"measurement": "TEAE: Neutrophil count decreased", "setting": "G2", "value": "0 N (%)"}, {"measurement": "TEAE: Oropharyngeal pain", "setting": "G2", "value": "1 (17) N (%)"}, {"measurement": "TEAE: Pain in extremity", "setting": "G2", "value": "1 (17) N (%)"}, {"measurement": "TEAE: Paresthesia", "setting": "G2", "value": "0 N (%)"}]}]}
